This is an account of results in US9790169B2, “IDO inhibitors” (BRISTOL-MYERS SQUIBB COMPANY, priority 2015, dated 2017).

pIC50: −log10 of the molar value.

In the experiment the target is human IDO1 (Homo sapiens, UniProt P14902). The experiment can be described thus: Assessment of human IDO-1 inhibitory activity in Hela cells (Interferon-gamma stimulated HeLa cells, Ehrlich reagent, absorbance 490 nm). The format is cell-based. The arrangement: endogenous in cells; host or cells: HeLa cells stimulated with interferon-gamma. The following applies: Hela Human IDO-1 cellular assay. Summed up: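 IDO activity induced by 18 h IFN-γ (human 10 ng/ml or murine 5 ng/ml, final) after 1 h compound pre-treatment of HeLa cells at 37 °C. Supernatant kynurenine detected via Ehrlich reagent absorbance at 490 nm following 3% TCA at 50 °C; IC50 set against no-IFN-γ and untreated-stimulated controls.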
Chain of human IDO1 (P14902 whole entry): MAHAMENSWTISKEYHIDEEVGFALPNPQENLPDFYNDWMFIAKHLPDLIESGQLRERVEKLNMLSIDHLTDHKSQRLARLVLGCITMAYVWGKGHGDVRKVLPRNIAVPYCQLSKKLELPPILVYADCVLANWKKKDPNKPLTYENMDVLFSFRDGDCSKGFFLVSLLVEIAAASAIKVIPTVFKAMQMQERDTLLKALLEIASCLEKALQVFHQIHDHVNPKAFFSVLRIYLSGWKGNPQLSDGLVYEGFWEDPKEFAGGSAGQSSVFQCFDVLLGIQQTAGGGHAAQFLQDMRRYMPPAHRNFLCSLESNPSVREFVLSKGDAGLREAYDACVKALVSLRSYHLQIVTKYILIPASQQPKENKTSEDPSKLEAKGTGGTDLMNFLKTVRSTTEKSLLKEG

`COCC(CC(=O)O)c1cc(F)c(N(CC(C)C)CC(C)C)c(Nc2ccc3nc(C)sc3c2)c1` (single isomer, unassigned) [Example 925, 3-(4-(diisobutylamino)-3-fluoro-5-((2-methylbenzo [d]thiazol-6-yl)amino)phenyl)-4-methoxybutanoic acid] had a pIC50 above 7.30.

In the case of `COCC(CC(=O)O)c1ccc(NC2CCOCC2)c(Nc2ccc(C#N)cc2)c1` (single isomer, unassigned) [Example 928 E1, 3-(3-((4-Cyanophenyl)amino)-4-((tetrahydro-2H-pyran-4-yl)amino)phenyl)-4-methoxybutanoic acid], the negative-log IC50 (pIC50) is below 7.30.

The compound `COCC(CC(=O)O)c1ccc(N2CCOC[C@@H]2C(C)C)c(Nc2ccc(C#N)cc2)c1` (single isomer, unassigned) [Example 929] gave a pIC50 above 7.30.

The compound `COCC(CC(=O)O)c1ccc(N2CCOC[C@@H]2C(C)C)c(Nc2ccc(Cl)cc2)c1` (single isomer, unassigned) [Example 930] showed a pIC50 above 7.30.

Compound `CCOc1ncc(Nc2cc(C(COC)CC(=O)O)ccc2N2CCOC[C@@H]2C(C)C)cn1` (single isomer, unassigned) [Example 931] showed a pIC50 below 7.30.

In turn, `COCC(CC(=O)O)c1ccc(N2CCOC[C@@H]2C(C)C)c(NC(=O)Nc2ccc(C#N)cc2)c1` (single isomer, unassigned) [Example 932] had a pIC50 below 7.30.

Regarding `COCC(CC(=O)O)c1ccc(N2CCOC[C@@H]2C(C)C)c(Nc2ccc(C#N)cc2)c1` (single isomer, unassigned) [Example 933], the pIC50 is below 7.30.

`COCC(CC(=O)O)c1ccc(N2CCOC[C@@H]2C(C)C)c(Nc2ccc(Cl)cc2)c1` (single isomer, unassigned) [Example 934] had a pIC50 below 7.30.

In turn, `CCOc1ncc(Nc2cc(C(CC)CC(=O)O)ccc2N(CC)C2CCN(Cc3ccccc3)CC2)cn1` (single isomer, unassigned) [Example 939, 3-(4-((1-Benzylpiperidin-4-yl)(ethyl)amino)-3-((2-ethoxypyrimidin-5-yl)amino)phenyl)pentanoic acid] showed a pIC50 above 7.30.

With `CCC(CC(=O)O)c1ccc(N(CC)C2CCN(Cc3ccccc3)CC2)c(Nc2ccc(C#N)cc2)c1` (single isomer, unassigned) [Example 940, 3-(4-((1-benzyl-piperidin-4-yl)(ethyl)amino)-3-((4-cyano-phenyl)amino)phenyl) pentanoic acid], the pIC50 is above 8.30.

`CCOc1ncc(Nc2cc(C(CC)CC(=O)O)ccc2N(CC)C2CCOC2)cn1` (single isomer, unassigned) [Example 945 D1, 3-(3-((2-Ethoxypyrimidin-5-yl)amino)-4-(ethyl(tetrahydrofuran-3-yl)amino)phenyl)pentanoic acid] gave a pIC50 above 7.30.

Regarding `CCC(CC(=O)O)c1ccc(N(CC)C2CCOC2)c(NC(=O)Nc2ccc(Cl)cc2F)c1` (single isomer, unassigned) [Example 946 D1, 3-(3-(3-(4-Chloro-2-fluorophenyl)ureido)-4-(ethyl(tetrahydrofuran-3-yl)amino)phenyl)pentanoic acid], the pIC50 is above 7.30.

Compound `CCC(CC(=O)O)c1ccc(N(CC)C2CCOC2)c(NC(=O)Nc2ccc(Cl)cc2F)c1` (single isomer, unassigned) [Example 946 D2, 3-(3-(3-(4-Chloro-2-fluorophenyl)ureido)-4-(ethyl(tetrahydrofuran-3-yl)amino)phenyl)pentanoic acid] gave a pIC50 above 8.30.

Compound `CCC(CC(=O)O)c1ccc(N2CC(O)(c3ccc(F)cc3)C2)c(Nc2ccc(Cl)cc2)c1` (single isomer, unassigned) [Example 1253 E1, 3-(3-((4-Chlorophenyl)amino)-4-(3-(4-fluorophenyl)-3-hydroxyazetidin-1-yl)phenyl)pentanoic acid] gave a pIC50 above 7.30.

As for `CCC(CC(=O)O)c1ccc(N2CC(O)(c3ccc(F)cc3)C2)c(Nc2ccc(Cl)cc2)c1` (single isomer, unassigned) [Example 1253 E2, 3-(3-((4-Chlorophenyl)amino)-4-(3-(4-fluorophenyl)-3-hydroxyazetidin-1-yl)phenyl)pentanoic acid], the pIC50 was above 8.30.

For the compound `CCC(CC(=O)O)c1ccc(N2CC(O)(c3ccc(F)cc3)C2)c(Nc2ccc(C#N)cc2)c1` (single isomer, unassigned) [Example 1254, 3-(3-((4-cyanophenyl)amino)-4-(3-(4-fluorophenyl)-3-hydroxyazetidin-1-yl)phenyl)pentanoic acid], the pIC50 is above 7.30.

Compound `CCOc1ncc(Nc2cc(C(CC)CC(=O)O)ccc2N2CC(O)(c3ccc(F)cc3)C2)cn1` (single isomer, unassigned) [Example 1256, 3-(3-((2-ethoxypyrimidin-5-yl)amino)-4-(3-(4-fluorophenyl)-3-hydroxyazetidin-1-yl)phenyl)pentanoic acid] had a negative logarithm of the IC50 (pIC50) below 7.30.

With `CCC(CC(=O)O)c1ccc(N(CCOC)C2CCOCC2)c(Nc2ccc(Cl)cc2)c1` (single isomer, unassigned) [Example 1257 E1, 3-(3-((4-Chlorophenyl)amino)-4-((2-methoxyethyl)(tetrahydro-2H-pyran-4-yl)amino)phenyl)pentanoic acid], the pIC50 is above 8.30.

Take `CCC(CC(=O)O)c1ccc(N(CCOC)C2CCOCC2)c(Nc2ccc(C#N)cc2)c1` (single isomer, unassigned) [Example 1258, 3-(3-((4-cyanophenyl)amino)-4-((2-methoxyethyl)(tetrahydro-2H-pyran-4-yl)amino)phenyl)pentanoic acid]: the pIC50 was above 8.30.

Regarding `CCC(CC(=O)O)c1ccc(N(CCOC)C2CCOCC2)c(Nc2cnc(OC)nc2)c1` (single isomer, unassigned) [Example 1259, 3-(4-((2-methoxyethyl)(tetrahydro-2H-pyran-4-yl)amino)-3-((2-methoxypyrimidin-5-yl)amino)phenyl)pentanoic acid], the pIC50 was above 7.30.

In turn, `CCOc1ncc(Nc2cc(C(CC)CC(=O)O)ccc2N(CCOC)C2CCOCC2)cn1` (single isomer, unassigned) [Example 1260, 3-(3-((2-ethoxypyrimidin-5-yl)amino)-4-((2-methoxyethyl)(tetrahydro-2H-pyran-4-yl)amino)phenyl)pentanoic acid] showed a pIC50 above 7.30.

With `CCC(CC(=O)O)c1ccc(N(CCOC)C2CCOCC2)c(NC(=O)Nc2ccc(C)cc2)c1` (single isomer, unassigned) [Example 1264 E1, 3-(4-((2-Methoxyethyl)(tetrahydro-2H-pyran-4-yl)amino)-3-(3-(p-tolyl)ureido)phenyl)pentanoic acid], the pIC50 is below 7.30.

Take `CCC(CC(=O)O)c1ccc(N(CCOC)C2CCOCC2)c(NC(=O)Nc2ccc(Cl)cc2F)c1` (single isomer, unassigned) [Example 1265, 3-(3-(3-(4-chloro-2-fluorophenyl)ureido)-4-((2-methoxyethyl) (tetrahydro-2H-pyran-4-yl)amino)phenyl)pentanoic acid]: the pIC50 is above 7.30.

The compound `CCN(c1ccc([C@H](CC(=O)O)C(F)(F)F)cc1NC(=O)Nc1ccc(Cl)cc1F)C1CCOCC1` (single isomer, unassigned) [Example 1267] had a pIC50 above 8.30.

The compound `CCN(c1ccc([C@H](CC(=O)O)C(F)(F)F)cc1NC(=O)Nc1ccc(C#N)cc1)C1CCOCC1` (single isomer, unassigned) [Example 1268] showed a pIC50 below 7.30.

For `CCN(c1ccc([C@H](CC(=O)O)C(F)(F)F)cc1NC(=O)Nc1ccc(C)cc1)C1CCOCC1` (single isomer, unassigned) [Example 1269], the pIC50 is above 7.30.

Compound `CCN(c1ccc([C@@H](CC(=O)O)C(F)(F)F)cc1NC(=O)Nc1ccc(Cl)cc1F)C1CCOCC1` (single isomer, unassigned) [Example 1270] had a pIC50 above 7.30.

The compound `CCN(c1ccc([C@@H](CC(=O)O)C(F)(F)F)cc1NC(=O)Nc1ccc(C#N)cc1)C1CCOCC1` (single isomer, unassigned) [Example 1271] gave a pIC50 below 7.30.

For the compound `CCN(c1ccc([C@@H](CC(=O)O)C(F)(F)F)cc1NC(=O)Nc1ccc(C)cc1)C1CCOCC1` (single isomer, unassigned) [Example 1272], the pIC50 was above 7.30.

For `CCC1COCCN1c1ccc([C@@H](COC)CC(=O)O)cc1Nc1ccc(C#N)cc1` (single isomer, unassigned) [Example 1281], the pIC50 was below 7.30.

For the compound `CCC1COCCN1c1ccc([C@@H](COC)CC(=O)O)cc1Nc1ccc(C#N)c(F)c1` (single isomer, unassigned) [Example 1282], the pIC50 was below 7.30.

In the case of `CCC1COCCN1c1ccc([C@@H](COC)CC(=O)O)cc1Nc1ccc(C#N)cn1` (single isomer, unassigned) [Example 1283], the pIC50 is below 7.30.

In turn, `CCC1COCCN1c1ccc([C@@H](COC)CC(=O)O)cc1Nc1cnc(OC)nc1` (single isomer, unassigned) [Example 1284] had a pIC50 below 7.30.

`CCOc1ncc(Nc2cc([C@@H](COC)CC(=O)O)ccc2N2CCOCC2CC)cn1` (single isomer, unassigned) [Example 1285] had a pIC50 below 7.30.

`CCC1COCCN1c1ccc([C@@H](COC)CC(=O)O)cc1Nc1ccc(Cl)cc1` (single isomer, unassigned) [Example 1286] gave a pIC50 below 7.30.

In turn, `CCC1COCCN1c1ccc([C@H](COC)CC(=O)O)cc1Nc1ccc(C#N)cc1` (single isomer, unassigned) [Example 1287] showed a pIC50 below 7.30.

Consider `CCC1COCCN1c1ccc([C@H](COC)CC(=O)O)cc1Nc1ccc(C#N)c(F)c1` (single isomer, unassigned) [Example 1288], for which the pIC50 is below 7.30.

In turn, `CCC1COCCN1c1ccc([C@H](COC)CC(=O)O)cc1Nc1ccc(C#N)cn1` (single isomer, unassigned) [Example 1289] showed a pIC50 below 7.30.

The compound `CCC1COCCN1c1ccc([C@H](COC)CC(=O)O)cc1Nc1cnc(OC)nc1` (single isomer, unassigned) [Example 1290] gave a pIC50 below 7.30.

What is called pIC50 is the negative decadic logarithm of the IC50, by convention in mol/L. Lower therefore signals a large IC50.
